Counter-ions that a name gives are not always drawn.
Assays:
[1] = system: NORMAL INTRAOCULAR PRESSURE IN UNANESTHETIZED RABBITS; experiment: Topical administration, effect on normal intraocular pressure in unanesthetized rabbits; type: in vivo; settings: 12.1 % by wt., 50μl in both eyes, in 0.5% hydroxyethylcellulose
[2] = system: INTRAOCULAR PRESSURE (IOP) IN RABBITS WITH ALPHA CHYMOTRYPSIN-INDUCED OCULAR HYPERTENSION; experiment: Topical administration, effect on IOP in rabbits with alpha chymotrypsin-induced ocular hypertension (tonometry); type: in vivo; settings: for mean ΔP (mean of ΔP versus IOP at t0): 8 animals; for mean ΔP (mean of ΔP versus IOP at t0) / Intraocular pressure, mean ± stand deviation: 50μl in 0.5% hydroxyethyl cellulose; for Change in IOP (mm Hg) After Drug Administration: 12.1 % by wt., 50µl of 0.5% hydroxyethylcellulose; for Change in IOP (mm Hg) After Drug Administration / IOP (mm Hg) t=0 min.: mean ± standard deviation, Table III; for IOP (mm Hg) t=0 min.: immediately prior the drug administration (served as control), 9 eyes; for Intraocular pressure, mean ± stand deviation: mean of 8 animals
[3] = 0 min after instillation (baseline), 14 eyes

SMILES: CC(=O)N=c1sc(S(N)(=O)=O)nn1C.[Na] [Methazolamide Sodium salt, N-[5-(aminosulfonyl)-3-methyl-1,3,4-thiadiazol-2(3H)-ylidene]acetamide Sodium Salt]
- Mean Intraocular Pressure ± SD [1, 3]: 20±1.9 mm Hg
- Mean Intraocular Pressure ± SD ([1]; 30 min after instillation): 20±3.0 mm Hg
- Mean Intraocular Pressure ± SD ([1]; 60 min after instillation): 20±2.7 mm Hg
- Mean Intraocular Pressure ± SD ([1]; 120 min after instillation): 19±3.3 mm Hg
- Mean Intraocular Pressure ± SD ([1]; 180 min after instillation): 18±2.7 mm Hg
- Mean Intraocular Pressure ± SD ([1]; 240 min after instillation): 20±3.4 mm Hg
- Mean Intraocular Pressure ± SD ([1]; 300 min after instillation): 20±2.8 mm Hg
- mean ΔP (mean of ΔP versus IOP at t0) ([2]; 30 min.): -3.1±4.58 mm Hg
- Change in IOP (mm Hg) After Drug Administration ([2]; 30 min): -3±4.6 mm Hg
- mean ΔP (mean of ΔP versus IOP at t0) ([2]; 60 min.): -5.1±4.68 mm Hg
- Change in IOP (mm Hg) After Drug Administration ([2]; 60 min): -5±4.7 mm Hg
- mean ΔP (mean of ΔP versus IOP at t0) ([2]; 120 min.): -5.6±6.02 mm Hg
- Change in IOP (mm Hg) After Drug Administration ([2]; 120 min): -6±6.0 mm Hg
- mean ΔP (mean of ΔP versus IOP at t0) ([2]; 180 min.): -6.8±3.70 mm Hg
- Change in IOP (mm Hg) After Drug Administration ([2]; 180 min): -7±3.7 mm Hg
- mean ΔP (mean of ΔP versus IOP at t0) ([2]; 240 min.): -5.4±5.42 mm Hg
- Change in IOP (mm Hg) After Drug Administration ([2]; 240 min): -5±5.4 mm Hg
- mean ΔP (mean of ΔP versus IOP at t0) ([2]; 300 min.): -6.9±6.27 mm Hg
- Change in IOP (mm Hg) After Drug Administration ([2]; 300 min): -7±6.3 mm Hg
- IOP (mm Hg) t=0 min. [2]: 39±7.7 mm Hg
- Intraocular pressure, mean ± stand deviation ([2]; 0 min. (baseline)): 39.1±7.72 mm Hg
- Intraocular pressure, mean ± stand deviation ([2]; 30 min.): 36.0±8.09 mm Hg
- Intraocular pressure, mean ± stand deviation ([2]; 60 min.): 34.0±7.37 mm Hg
- Intraocular pressure, mean ± stand deviation ([2]; 120 min.): 33.5±8.91 mm Hg
- Intraocular pressure, mean ± stand deviation ([2]; 180 min.): 32.4±6.05 mm Hg
- Intraocular pressure, mean ± stand deviation ([2]; 240 min.): 33.8±7.91 mm Hg
- Intraocular pressure, mean ± stand deviation ([2]; 300 min.): 32.3±7.67 mm Hg

SMILES: NS(=O)(=O)c1cc(Cl)c(Cl)c(S(N)(=O)=O)c1 [Dichlorphenamide Dipotassium salt, 4,5-Dichloro-m-benzenedisulfon-amide dipotassium salt . hemihydrate]
- Mean Intraocular Pressure ± SD [1, 3]: 20±1.8 mm Hg
- Mean Intraocular Pressure ± SD ([1]; 30 min after instillation): 18±2.4 mm Hg
- Mean Intraocular Pressure ± SD ([1]; 60 min after instillation): 18±2.4 mm Hg
- Mean Intraocular Pressure ± SD ([1]; 120 min after instillation): 17±2.1 mm Hg
- Mean Intraocular Pressure ± SD ([1]; 180 min after instillation): 15±2.4 mm Hg
- Mean Intraocular Pressure ± SD ([1]; 240 min after instillation): 17±1.8 mm Hg
- Mean Intraocular Pressure ± SD ([1]; 300 min after instillation): 20±2.6 mm Hg
- Change in IOP (mm Hg) After Drug Administration ([2]; 30 min): -1±5.3 mm Hg
- Change in IOP (mm Hg) After Drug Administration ([2]; 60 min): -4±3.8 mm Hg
- Change in IOP (mm Hg) After Drug Administration ([2]; 120 min): -7±6.2 mm Hg
- Change in IOP (mm Hg) After Drug Administration ([2]; 180 min): -6±6.8 mm Hg
- Change in IOP (mm Hg) After Drug Administration ([2]; 240 min): -4±6.2 mm Hg
- Change in IOP (mm Hg) After Drug Administration ([2]; 300 min): -3±6.7 mm Hg
- IOP (mm Hg) t=0 min. [2]: 38±5.9 mm Hg

SMILES: CC(=O)Nc1nnc(S(N)(=O)=O)s1.[K].[K] [Acetazolamide Dipotassium salt, N-[5-(aminosulfonyl)-1,3,4-thiadiazol-2-yl]acetamide dipotassium salt]
- Mean Intraocular Pressure ± SD [1, 3]: 19±1.3 mm Hg
- Mean Intraocular Pressure ± SD ([1]; 30 min after instillation): 19±1.3 mm Hg
- Mean Intraocular Pressure ± SD ([1]; 60 min after instillation): 20±1.4 mm Hg
- Mean Intraocular Pressure ± SD ([1]; 120 min after instillation): 19±1.9 mm Hg
- Mean Intraocular Pressure ± SD ([1]; 180 min after instillation): 19±1.9 mm Hg
- Mean Intraocular Pressure ± SD ([1]; 240 min after instillation): 20±1.8 mm Hg
- Mean Intraocular Pressure ± SD ([1]; 300 min after instillation): 21±1.7 mm Hg
- Change in IOP (mm Hg) After Drug Administration ([2]; 30 min): -1±3.1 mm Hg
- Change in IOP (mm Hg) After Drug Administration ([2]; 60 min): -3±4.8 mm Hg
- Change in IOP (mm Hg) After Drug Administration ([2]; 120 min): -5±4.6 mm Hg
- Change in IOP (mm Hg) After Drug Administration ([2]; 180 min): -6±5.3 mm Hg
- Change in IOP (mm Hg) After Drug Administration ([2]; 240 min): -6±5.3 mm Hg
- Change in IOP (mm Hg) After Drug Administration ([2]; 300 min): -3±6.5 mm Hg
- IOP (mm Hg) t=0 min. [2]: 37±6.4 mm Hg
